# Results reported in ChEMBL document CHEMBL5729637, “Beta-amino acid derivative, kinase inhibitor and pharmaceutical composition containing the same, and method for performing an in vivo related application that benefits from the inhibition of a kinase” (2023).
# Biological target: T1, Mitogen-activated protein kinase kinase kinase 19 (Homo sapiens, UniProt Q56UN5)
# T1 sequence (Q56UN5 whole entry): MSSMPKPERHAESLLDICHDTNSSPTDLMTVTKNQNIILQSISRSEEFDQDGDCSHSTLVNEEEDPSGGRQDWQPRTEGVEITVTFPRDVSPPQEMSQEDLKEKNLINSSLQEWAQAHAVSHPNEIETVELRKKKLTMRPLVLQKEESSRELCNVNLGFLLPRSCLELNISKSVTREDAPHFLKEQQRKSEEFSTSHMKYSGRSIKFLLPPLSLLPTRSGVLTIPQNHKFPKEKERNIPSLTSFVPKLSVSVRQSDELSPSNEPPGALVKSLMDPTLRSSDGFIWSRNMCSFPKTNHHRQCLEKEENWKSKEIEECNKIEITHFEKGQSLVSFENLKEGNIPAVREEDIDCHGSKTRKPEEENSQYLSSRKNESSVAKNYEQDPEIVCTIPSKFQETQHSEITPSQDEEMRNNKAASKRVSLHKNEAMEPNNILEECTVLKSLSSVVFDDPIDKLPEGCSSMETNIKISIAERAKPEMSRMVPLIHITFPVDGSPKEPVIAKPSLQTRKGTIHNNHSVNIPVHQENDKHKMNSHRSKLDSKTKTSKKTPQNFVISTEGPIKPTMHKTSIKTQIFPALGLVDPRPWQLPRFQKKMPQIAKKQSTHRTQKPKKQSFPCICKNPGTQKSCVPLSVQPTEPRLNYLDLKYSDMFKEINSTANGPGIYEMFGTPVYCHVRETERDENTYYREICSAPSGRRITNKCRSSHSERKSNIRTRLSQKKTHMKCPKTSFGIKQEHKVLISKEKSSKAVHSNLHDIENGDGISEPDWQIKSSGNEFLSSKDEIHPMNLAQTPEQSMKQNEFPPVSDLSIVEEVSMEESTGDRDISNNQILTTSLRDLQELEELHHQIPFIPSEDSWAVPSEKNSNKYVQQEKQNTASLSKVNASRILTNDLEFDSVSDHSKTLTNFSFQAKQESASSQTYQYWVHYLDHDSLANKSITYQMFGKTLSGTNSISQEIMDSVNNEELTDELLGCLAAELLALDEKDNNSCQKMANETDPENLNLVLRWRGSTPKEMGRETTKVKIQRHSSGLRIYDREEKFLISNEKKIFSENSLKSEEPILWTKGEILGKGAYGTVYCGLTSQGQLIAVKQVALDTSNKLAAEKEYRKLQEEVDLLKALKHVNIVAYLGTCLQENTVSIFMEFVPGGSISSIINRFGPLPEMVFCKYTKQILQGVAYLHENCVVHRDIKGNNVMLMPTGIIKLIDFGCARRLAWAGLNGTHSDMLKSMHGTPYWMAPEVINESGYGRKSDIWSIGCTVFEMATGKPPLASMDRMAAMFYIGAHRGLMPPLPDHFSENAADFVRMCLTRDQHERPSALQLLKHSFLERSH
# Assay: In Vitro Effect Assay: Table 5: The experimental procedure referred to the Z′-LYTE Screening Protocol and Assay Conditions provided by ThermoFisher Scientific. C-1. […] Peptide/Kinase Mixture was pre-diluted with Kinase Buffer to 2× working concentration. ATP solution was pre-diluted with Kinase Buffer (50 mM HEPES pH 7.5, 0.01% BRIJ-35, 10 mM MgCl2, 1 mM EGTA) to 4× working concentration. […], which contains 2 mg/mL Phosphatidyl Serine, 0.2 mg/mL DAG in 20 mM HEPES, pH 7.4 and 0.3% CHAPS, and was pre-diluted 10 fold with development buffer.C-2. Analytical Method. 1. 100 nL of the above diluted test compound and 2.4 μL of kinase buffer were added to a black 384-well plate (Corning, Cat. NO. 4514), then add 5 μL of the peptide/kinase mixture mentioned above was added thereto, and after that 2.5 μL of ATP solution was added thereto, and the culture plate was shaken for 30 seconds.2. Next, the culture plate was placed at room temperature and incubated for 60 minutes.3. After that 5 μL of the development reagent solution was added and the culture plate was shaken for 30 seconds in the dark, and then the data was read and analyzed with a fluorescence plate reader. […]
row,Compound,IC50 [µM]
1,NCC(Oc1ccc(C(F)(F)F)cc1)C(=O)Nc1ccc(-c2cn[nH]c2)cc1 (configuration not stated),> 10
2,NCC(C(=O)Nc1ccc(-c2cn[nH]c2)cc1)c1ccc(CO)cc1 (configuration not stated),> 1
